Experimental data: patent publication US8486693B2, “Modified dendritic cells having enhanced survival and immunogenicity and related compositions and methods” (Bellicum Pharmaceuticals, Inc., priority 2006, dated 2013)

Tested on: NF-.kappa.B
Assay: NF-.kappa.B/SEAP reporter assay in Jurkat-TAg cells (Example 10, iAkt)
Type: cell-based, human
Description: Jurkat-TAg cells in logarithmic-phase growth were electroporated ([…], 250 V; Gene Pulser II (BIO-RAD)) with expression plasmids and the NF-.kappa.B-SEAP reporter plasmid. After 24 hours, transfected cells were stimulated with sub-optimal levels of the phorbol ester PMA (5 ng/ml) along with log dilutions of the heterodimerizing CID, AP22783, and additional treatments. After an additional 24 hours, supernatants were assayed for SEAP activity.
Two key requirements for efficient synthetic regulation of a biological event are highly specific conditional dependency and low background. […] Therefore, in order to optimize iAkt, an NF-.kappa.B-responsive secreted alkaline phosphatase (SEAP) reporter plasmid was used as an assay for Akt activation.
Briefly, the human T cell line, Jurkat-TAg, was cotransfected with reporter plasmid, NF-.kappa.B/SEAP, along with constitutively active M-Akt expression vector or empty control vector. Twenty-four hours after transfection, cells were divided into aliquots that were stimulated with sub-optimal levels (5 ng/ml) of the phorbol ester, PMA, or were untreated. After an additional 24 hours, SEAP activity was measured. Although Akt activity alone was insufficient to induce measurable NF-.kappa.B activity, M-Akt expression potentiated (by 3-4 fold) PKC-induced NF-.kappa.B activity, consistent with multiple reports. […]

| Molecule | NF-.kappa.B activation by M-Akt plus PKC in presence of inhibitor (LY294002 5 μM, wortmannin 1 μM, R0318220 1 μM) | NF-.kappa.B induction on CID (AP22783)-mediated membrane recruitment via M-FRB12 (5 ng/ml PMA, log dilutions of AP22783) |
| --- | --- | --- |
| Cn1cc(C2=C(c3cn(CCCSC(=N)N)c4ccccc34)C(=O)NC2=O)c2ccccc21 [R0318220] | complete inhibition of NF-.kappa.B |  |
| Akt.KM: kinase-dead mutant (K179M) chimeric Akt (protein, UniProt P31750 1-480, looked up, variant K179M, chimeric) RAC-alpha …: MNDVAIVKEGWLHKRGEYIKTWRPRYFLLKNDGTFIGYKERPQDVDQRESPLNNFSVAQCQLMKTERPRPNTFIIRCLQWTTVIERTFHVETPEEREEWATAIQTVADGLKRQEEETMDFRSGSPSDNSGAEEMEVSLAKPKHRVTMNEFEYLKLLGKGTFGKVILVKEKATGRYYAMMILKKEVIVAKDEVAHTLTENRVLQNSRHPFLTALKYSFQTHDRLCFVMEYANGGELFFHLSRERVFSEDRARFYGAEIVSALDYLHSEKNVVYRDLKLENLMLDKDGHIKITDFGLCKEGIKDGATMKTFCGTPEYLAPEVLEDNDYGRAVDWWGLGVVMYEMMCGRLPFYNQDHEKLFELILMEEIRFPRTLGPEAKSLLSGLLKKDPTQRLGGGSEDAKEIMQHRFFANIVWQDVYEKKLSPPFKPQVTSETDTRYFDEEFTAQMITITPPDQDDSMECVDSERRPHFPQFSYSASGTA |  | no detectable effect on NF-.kappa.B induction over PMA alone |
